Reference: patent US9718846B1, “Crystalline polymorphs of benfotiamine, process for preparation and its use thereof” (Shanghai Ri Xin Biotechnolgy Co., Ltd., priority 2012, dated 2017)

Experiments:
[1] = Dynamic vapor sorption analysis of hygroscopicity; format: physicochemical; details: RH from 5% to 95%, comparison of forms A, C, D, E
From the text: Dynamic vapor sorption analysis was used for measurement of the hygroscopicity of crystalline form A, C, D, and E under the scope of relative humidity (RH) from 5% to 95%.

[2] = Solubility in methanol/dichloromethane mixture; format: physicochemical; details: methanol/dichloromethane mixture (1:3 v/v), organic solvent or mixture; mixture organic solvent of methanol and dichloromethane (volume ratio 1:3)
Description: In 200 μl of a mixture organic solvent of methanol and dichloromethane (volume ratio 1:3) was added 10 mg of the crystalline form E of benfotiamine (solubility 50 mg/ml). Then, 1 ml of the poor solvent of ethanol was slowly added to the mixture along device wall. Precipitated crystals were collected by filtration, followed by evaporated in the air.

Row | Compound | hygroscopicity rank among the four crystalline forms [1] | solubility [2]
1 | C/C(=C(\CCO[P+]([O-])(O)O)SC(=O)c1ccccc1)N(C=O)Cc1cnc(C)nc1N [crystalline form D, S-benzoylthiamine O-monophosphate] | highest | 
2 | C/C(=C(\CCO[P+]([O-])(O)O)SC(=O)c1ccccc1)N(C=O)Cc1cnc(C)nc1N [crystalline form E, S-benzoylthiamine O-monophosphate] | lowest | 50 mg/mL
